From US10023570B2 (Array BioPharma, Inc., priority 2015, dated 2018)
Counter-ions that a name gives are not always drawn. Like-named read-outs stand apart in the source and are kept apart here.

Experiments:
[1] = target: N-terminal GST tagged recombinant human RET cytoplasmic domain (aa 658-end), wild type RET kinase (Homo sapiens (Human), UniProt P07949); experiment: RET Enzyme Assay (HTRF KinEASE-TK), wild type RET; type: biochemical
[2] = target: Kif5b-RET fusion protein in HEK-293 cells (Homo sapiens, UniProt P07949); experiment: cell-based
Procedure: The cellular potency of a compound inhibiting RET kinase was determined in HEK-293 cells expressing a Kif5b-RET fusion protein. Briefly, HEK-293 cells expressing a Kif5b-RET fusion protein were plated at 50K cells/well in 96 well poly-D-Lysine coated plates the day prior to the assay. The cells were incubated for 1 hour with test compound in DMEM (Dulbecco's Modified Eagle Medium) at a final DMSO concentration of 0.5%. […] After 1 hour the media was removed, the cells were fixed with 3.8% formaldehyde for 20 min, washed with PBS, and permeabilized for 10 min with 100% methanol. […] All antibodies were diluted in LI-COR Block containing 0.05% Tween. The plates were washed with PBS-0.05% Tween20, 100 μL PBS was added to each well, and the plates were read on a LI-COR Aerius fluorescent plate reader. The phospho-RET signal was normalized to the GAPDH signal. […] The IC50 value is the point where the curve crosses 50 POC.

[3] = HEK-293 cells expressing Kif5b-RET, phospho-RET(Tyr1062), read-out: KIF5B-RET pTYR1062 Cell IC50
[4] = HEK-293 cells expressing Kif5b-RET, read-out: KIF5B-RET pTYR1062 Cell IC50

Chain of Kif5b-RET fusion protein in HEK-293 cells (P07949 29-1114 limits assumed): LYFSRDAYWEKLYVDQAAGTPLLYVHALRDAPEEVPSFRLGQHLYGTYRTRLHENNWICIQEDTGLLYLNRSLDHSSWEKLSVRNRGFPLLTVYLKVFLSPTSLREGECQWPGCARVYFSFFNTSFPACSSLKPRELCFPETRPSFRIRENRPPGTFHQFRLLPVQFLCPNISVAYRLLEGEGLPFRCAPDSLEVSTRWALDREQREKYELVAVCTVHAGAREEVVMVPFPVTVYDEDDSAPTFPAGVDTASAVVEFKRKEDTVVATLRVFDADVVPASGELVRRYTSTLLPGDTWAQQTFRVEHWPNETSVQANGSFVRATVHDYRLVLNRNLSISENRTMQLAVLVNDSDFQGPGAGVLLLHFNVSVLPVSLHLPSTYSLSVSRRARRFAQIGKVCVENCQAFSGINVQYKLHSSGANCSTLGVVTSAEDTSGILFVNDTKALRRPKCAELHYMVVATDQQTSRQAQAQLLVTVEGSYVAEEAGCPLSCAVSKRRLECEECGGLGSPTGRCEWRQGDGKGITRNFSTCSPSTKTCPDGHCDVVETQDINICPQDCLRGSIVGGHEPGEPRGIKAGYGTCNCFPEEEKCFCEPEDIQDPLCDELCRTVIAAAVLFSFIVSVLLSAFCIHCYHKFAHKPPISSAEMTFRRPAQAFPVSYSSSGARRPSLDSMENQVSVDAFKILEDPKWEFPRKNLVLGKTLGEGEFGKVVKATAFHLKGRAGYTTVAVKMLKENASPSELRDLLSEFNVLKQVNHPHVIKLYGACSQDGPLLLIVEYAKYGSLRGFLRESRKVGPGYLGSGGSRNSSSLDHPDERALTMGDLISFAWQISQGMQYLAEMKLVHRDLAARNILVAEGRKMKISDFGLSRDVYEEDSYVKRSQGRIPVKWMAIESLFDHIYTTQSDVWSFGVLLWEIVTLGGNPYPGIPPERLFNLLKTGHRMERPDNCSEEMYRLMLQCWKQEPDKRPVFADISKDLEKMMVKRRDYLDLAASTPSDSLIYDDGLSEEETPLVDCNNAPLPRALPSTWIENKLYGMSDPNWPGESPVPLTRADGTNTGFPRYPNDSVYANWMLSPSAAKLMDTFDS
Chain of N-terminal GST tagged recombinant human RET cytoplasmic domain (aa 658-end), wild type RET kinase (P07949 658-1114): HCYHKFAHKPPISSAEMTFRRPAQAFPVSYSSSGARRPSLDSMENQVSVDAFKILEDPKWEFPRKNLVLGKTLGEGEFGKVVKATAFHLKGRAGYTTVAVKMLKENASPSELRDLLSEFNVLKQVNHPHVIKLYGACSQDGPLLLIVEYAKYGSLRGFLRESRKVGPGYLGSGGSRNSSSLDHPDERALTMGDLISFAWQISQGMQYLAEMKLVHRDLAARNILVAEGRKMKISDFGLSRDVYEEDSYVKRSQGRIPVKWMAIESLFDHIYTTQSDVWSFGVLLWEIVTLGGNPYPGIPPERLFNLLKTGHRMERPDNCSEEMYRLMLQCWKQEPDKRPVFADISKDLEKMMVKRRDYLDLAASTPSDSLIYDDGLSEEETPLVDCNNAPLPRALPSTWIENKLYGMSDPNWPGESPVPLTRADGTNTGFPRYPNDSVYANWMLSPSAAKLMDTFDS

IC50 ([1]; wild type RET, 1 mM ATP)	IC50 [2, 4]	SMILES	further results
372 nM		Cn1cc(-c2cc(-c3ccc(N4CCN(C(=O)OC(C)(C)C)CC4)nc3)c3c(Cl)cnn3c2)cn1 [Example 325, tert-butyl 4-(5-(3-chloro-6-(1-methyl-1H-pyrazol-4-yl)pyrazolo[1,5-a]pyridin-4-yl)pyridin-2-yl)piperazine-1-carboxylate]	IC50 [2, 3]: 742 nM
30.2 nM		CC(O)CN(C)C(=O)C1CCN(c2ccc(-c3cc(-c4cnn(C)c4)cn4ncc(C#N)c34)cn2)CC1 (stereo not drawn) [Example 245, 1-(5-(3-cyano-6-(1-methyl-1H-pyrazol-4-yl)pyrazolo[1,5-a]pyridin-4-yl)pyridin-2-yl)-N-(2-hydroxypropyl)-N-methylpiperidine-4-carboxamide]	IC50 [2, 3]: 191 nM
16.5 nM	8 nM	COc1ccc(CN2CCN(c3ccc(-c4cc(-c5cnn(C[C@H](C)O)c5)cn5ncc(C#N)c45)cn3)CC2)cn1 [Example 701, (S)-6-(1-(2-hydroxypropyl)-1H-pyrazol-4-yl)-4-(6-(4-((6-methoxypyridin-3-yl)methyl)piperazin-1-yl)pyridin-3-yl)pyrazolo[5-a]pyridine-3-carbonitrile]	
6.1 nM	5000 nM	Cn1cc(-c2cc(-c3ccc(N4CCC(S(=O)(=O)O)CC4)nc3)c3c(C#N)cnn3c2)cn1 [Example 568, 1-(5-(3-cyano-6-(1-methyl-1H-pyrazol-4-yl)pyrazolo[1,5-a]pyridin-4-yl)pyridin-2-yl)piperidine-4-sulfonic acid]	
15.3 nM	5.6 nM	COc1ccc(CN2CCN(c3ccc(-c4cc(-c5cnn(CC(C)(C)O)c5)cn5ncc(C#N)c45)cn3)CC2)cn1 [Example 702, 6-(1-(2-hydroxy-2-methylpropyl)-1H-pyrazol-4-yl)-4-(6-(4-((6-methoxypyridin-3-yl)methyl)piperazin-1-yl)pyridin-3-yl)pyrazolo[1,5-a]pyridine-3-carbonitrile]	
34.4 nM	63 nM	Cn1cc(-c2cc(-c3ccc(N4CCN(Cc5ccccc5)CC4)nc3)c3c(Cl)cnn3c2)cn1 [Example 647, 4-(6-(4-benzylpiperazin-1-yl)pyridine-3-yl)-3-chloro-6-(1-methyl-1H-pyrazol-4-yl)pyrazolo[1,5-a]pyridine]	
11.9 nM		Cn1cc(-c2cc(-c3ccc(N4CCN(C(=O)CCS(C)(=O)=O)CC4)nc3)c3c(C#N)cnn3c2)cn1 [Example 3, 6-(1-methyl-1H-pyrazol-4-yl)-4-(6-(4-(3-(methylsulfonyl)propanoyl)piperazin-1-yl)pyridin-3-yl)pyrazolo[1,5-a]pyridine-3-carbonitrile]	IC50 [2, 3]: 119 nM
30.8 nM	32.5 nM	COCCCN1CCN(c2ccc(-c3cc(-c4cnn(C)c4)cn4ncc(C#N)c34)cn2)CC1 [Example 405, 4-(6-(4-(3-methoxypropyl)piperazin-1-yl)pyridin-3-yl)-6-(1-methyl-1H-pyrazol-4-yl)pyrazolo[1,5-a]pyridine-3-carbonitrile]	
11.3 nM		CC[C@@H](CO)NC(=O)N1CCN(c2ccc(-c3cc(-c4cnn(C)c4)cn4ncc(C#N)c34)cn2)CC1 [Example 122, (S)-4-(5-(3-cyano-6-(1-methyl-1H-pyrazol-4-yl)pyrazolo[1,5-a]pyridin-4-yl)pyridin-2-yl)-N-(1-hydroxybutan-2-yl)piperazine-1-carboxamide]	IC50 [2, 3]: 267 nM
20 nM	12.6 nM	COc1ccc(CN2CCN(c3ccc(-c4cc(-c5cnn(CC(=O)N(C)C)c5)cn5ncc(C#N)c45)cn3)CC2)cn1 [Example 710, 2-(4-(3-cyano-4-(6-(4-((6-methoxypyridin-3-yl)methyl)piperazin-l-yl)pyridin-3-yl)pyrazolo[1,5-a]pyridin-6-yl)-1H-pyrazol-1-yl)-N,N-dimethylacetamide]	
26.2 nM	9.3 nM	COc1ccc(CN2CCN(c3ccc(-c4cc(-c5cnn(CC(C)OC)c5)cn5ncc(C#N)c45)cn3)CC2)cn1 (stereo not drawn) [Example 709, 6-(1-(2-methoxypropyl)-1H-pyrazol-4-yl)-4-(6-(4-((6-methoxypyridin-3-yl)methyl)piperazin-1-yl)pyridin-3-yl)pyrazolo[1,5-a]pyridine-3-carbonitrile]	
6.7 nM	12.4 nM	COc1ccc(CN2CCN(c3ccc(-c4cc(-c5cn[nH]c5)cn5ncc(C#N)c45)cn3)CC2)cn1 [Example 698, 4-(6-(4-((6-methoxypyridin-3-yl)methyl)piperazin-1-yl)pyridin-3-yl)-6-(1H-pyrazol-4-yl)pyrazolo[1,5-a]pyridine-3-carbonitrile]	
153 nM		CC(C)(C)OC(=O)N1CCN(c2ccc(-c3cc(-c4cnn(C(F)F)c4)cn4ncc(C#N)c34)cn2)CC1 [Example 265, tert-Butyl 4-(5-(3-cyano-6-(1-(difluoromethyl)-1H-pyrazol-4-yl)pyrazolo[1,5-a]pyridin-4-yl)pyridin-2-yl)piperazine-1-carboxylate]	IC50 [2, 3]: 289 nM
18.3 nM	6.4 nM	COc1ccc(CN2CCN(c3ccc(-c4cc(-c5cnn(CCC(=O)N(C)C)c5)cn5ncc(C#N)c45)cn3)CC2)cn1 [Example 706, 3-(4-(3-cyano-4-(6-(4-((6-methoxypyridin-3-yl)methyl)piperazin-1-yl)pyridin-3-yl)pyrazolo[1,5-a]pyridin-6-yl)-1H-pyrazol-1-yl)-N,N-dimethylpropanamide]	
		CN(C)CCCC(=O)N1CCN(c2ccc(-c3cc(-c4cnn(C)c4)cn4ncc(C#N)c34)cn2)CC1 [Example 52, 4-(6-(4-(4-(dimethylamino)butanoyl)piperazin-1-yl)pyridin-3-yl)-6-(1-methyl-1H-pyrazol-4-yl)pyrazolo[1,5-a]pyridine-3-carbonitrile bis(2,2,2-trifluoroacetate)]	IC50 [1]: 17.7 nM; IC50 [2, 3]: 340 nM
9 nM	146 nM	Cn1cc(-c2cc(-c3ccc(N4CCC(C(=O)NOCCO)CC4)nc3)c3c(C#N)cnn3c2)cn1 [Example 566, 1-(5-(3-cyano-6-(1-methyl-1H-pyrazol-4-yl)pyrazolo[1,5-a]pyridin-4-yl)pyridin-2-yl)-N-(2-hydroxyethoxy)piperidine-4-carboxamide]	
70.6 nM	164 nM	Cc1cnn2cc(-c3cnn(C)c3)cc(-c3ccc(N4CCN(Cc5ccccn5)CC4)nc3)c12 [Example 654, 3-methyl-6-(1-methyl-1H-pyrazol-4-yl)-4-(6-(4-(pyridine-2-ylmethyl)piperazin-1-yl)pyridin-3-yl)pyrazolo[1,5-a]pyridine]	
16.4 nM	9.8 nM	COc1ccc(CN2CCN(c3ccc(-c4cc(-c5cnn(CCS(=O)(=O)C(C)C)c5)cn5ncc(C#N)c45)cn3)CC2)cn1 [Example 703, 6-(1-(2-(isopropylsulfonyl)ethyl)-1H-pyrazol-4-yl)-4-(6-(4-((6-methoxypyridin-3-yl)methyl)piperazin-1-yl)pyridin-3-yl)pyrazolo[1,5-a]pyridine-3-carbonitrile]	

SMILES	IC50 ([1]; wild type RET, 1 mM ATP)	IC50 [2, 4]	further results
COc1ccc(CN2CCN(c3ncc(-c4cc(-c5cnn(C)c5)cn5ncc(C#N)c45)cc3F)CC2)cn1 [Example 736, 4-(5-fluoro-6-(4-((6-methoxypyridin-3-yl)methyl)piperazin-1-yl)pyridin-3-yl)-6-(1-methyl-1H-pyrazol-4-yl)pyrazolo[1,5-a]pyridine-3-carbonitrile]	35.1 nM		IC50 [2]: 67.4 nM
COc1ccc(CN2CCN(c3ccc(-c4cc(-c5cnn(C)c5)cn5ncc(C)c45)cn3)CC2)cn1 [Example 744, 4-(6-(4-((6-methoxypyridin-3-yl)methyl)piperazin-1-yl)pyridin-3-yl)-3-methyl-6-(1-methyl-1H-pyrazol-4-yl)pyrazolo[1,5-a]pyridine]	46.2 nM		IC50 [2]: 66.3 nM
CC(C)OCCN1CCN(c2ccc(-c3cc(-c4cnn(C(F)F)c4)cn4ncc(C#N)c34)cn2)CC1 [Example 585, 6-(1-(difluoromethyl)-1H-pyrazol-4-yl)-4-(6-(4-(2-isopropoxyethyl)piperazin-1-yl)pyridin-3-yl)pyrazolo[1,5-a]pyridine-3-carbonitrile]	13.6 nM		IC50 [2]: 13.2 nM
CC(C)C(O)CN1CCN(c2ccc(-c3cc(-c4cnn(C)c4)cn4ncc(Cl)c34)cn2)CC1 (stereo not drawn) [Example 648, 1-(4-(5-(3-chloro-6-(1-methyl-1H-pyrazol-4-yl)pyrazolo[1,5-a]pyridin-4-yl)pyridine-2-yl)piperazin-1-yl)-3-methylbutan-2-ol]	34.1 nM		IC50 [2]: 183 nM
N#Cc1cnn2cc(-c3cnn(C(F)F)c3)cc(-c3ccc(N4CCNCC4)nc3)c12 [Example 266, 6-(1-(difluoromethyl)-1H-pyrazol-4-yl)-4-(6-(piperazin-1-yl)pyridin-3-yl)pyrazolo[1,5-a]pyridine-3-carbonitrile dihydrochloride]	47.7 nM		IC50 ([2]; read-out: KIF5B-RET pTYR1062 Cell IC50): 162 nM
COc1ccc(CN2CCN(c3ccc(-c4cc(-c5cnn(C(C)C)c5)cn5ncc(C#N)c45)cn3)CC2)cn1 [Example 697, 6-(1-isopropyl-1H-pyrazol-4-yl)-4-(6-(4-((6-methoxypyridin-3-yl)methyl)piperazin-1-yl)pyridin-3-yl)pyrazolo[1,5-a]pyridine-3-carbonitrile]	28.1 nM		IC50 [2]: 13.8 nM
